Laboratory results published in patent publication US20140045805A1, “Fragrance Compositions and Other Compositions Which Contain Naturally Occurring Substances Found in Corals” (priority 2007, published 2014).

What was measured:
Assay type in all cases: in vivo, human
[1] = system: healthy volunteers (men and women); test: Behavioral effects by modified DABS-70 inventory after nasal exposure; settings: for Sensuality cluster mean: modified DABS-70, items scored 0-4
Experimental: We assessed the resulting physiological responses and behavioral changes induced by nasal exposure to 12 ng pregna-5,20-dien-3β-ol in 76 volunteers (38 women and 38 men), age 18 to 46 (Table 1) using a placebo-controlled, single blind and crossover study design. The items of the modified DABS-70 were rearranged during consecutive administrations, in order to minimize the effect of learning.
Forty of the items on the standard DABS-70 questionnaire are descriptions of “ways people feel”, and subjects indicate whether they had experienced each emotion “never”, “rarely”, “sometimes”, “frequently”, or “always” in the last two weeks. The remaining 30 items on the standard DABS-70 questionnaire are personality characteristics for which subjects describe themselves as “not at all,” “a little bit,” “moderately” “quite a bit” or “extremely,” depending on the degree to which they feel each trait is typical of them. In the modified DABS-70 questionnaire, sixty-seven items were selected and assessed and during the testing the questions were randomized to minimize or prevent “learning” the questionnaire by the volunteers. This psychometric instrument was chosen because several items were of a sexual connotation and could be used to quantify the effects of pregna-5,20-dien-3β-ol on sexuality.
Subjects who participated were asked, as a baseline, to fill out the modified DABS-70 as to their personality characteristics and feelings as they currently perceived them. Each item was quantified ranging from an individual's perception of “not at all” (0) to “extremely” (4). At the beginning of the questionnaire was a statement that they might feel differently after the blind and randomized exposure to the contents of a perfumery grade smelling strip positioned on the upper lip. The baseline electrophysiological measurements were performed after the questionnaire was completed, and again 5 minutes before the second randomized exposure (FIG. 3). Twenty minutes after the first randomized exposure to control or pregna-5,20-dien-3β-ol and again 20 minutes after the second randomized exposure to control or pregna-5,20-dien-3β-ol (in both instances, 5 minutes after the second and fourth set of electrophysiological measurements), the modified DABS-70 was administered again (FIG. 4). This task took approximately 10 minutes to complete, and the order of the questions of each consecutive modified DABS-70 administered was rearranged in order to minimize the effect of learning during prior administration of the test.
Active substance (pregna-5,20-dien-3β-ol) and control were freshly prepared on 0.7 cm×10 cm perfumery grade smelling strips 24 hours before the experiment. A perfumery grade smelling strip was positioned on the upper lip of the subject for delivery of control or active substance to the nasal passages for a period of 20 minutes. Each breath carried vapors of pregna-5,20-dien-3β-ol or control (air) from the paper strip to the nasal passages.
Perfumery grade smelling strips containing either pregna-5,20-dien-3β-ol or control were prepared as follows: 100 μl of stock solution containing 100 mg pregna-5,20-dien-3β-ol/10 mL ethanol (95%) was added to a clean paper strip. Ethanol was allowed to evaporate overnight in a clean fume hood, and 1 mg of dry crystals of pregna-5,20-dien-3β-ol remained embedded in the dried perfumery grade smelling strip. Control was a perfumery grade smelling strip prepared following the same procedure but the solution was devoid of active substance.
The following assumptions were used to calculate the quantity of pregna-5,20-dien-3β-ol delivered to the nasal passages during a study session: a) the quantity of pregna-5,20-dien-3β-ol arriving to the nasal passages with each breath is ≈40 pg (determined as described below); b) the average respiratory rate at rest in men and women is ≈15 breaths per minute; and c) the subject was exposed to pregna-5,20-dien-3β-ol for 20 min during the entire study session. […]

[2] = system: healthy volunteers (men and women); test: Local and general tolerability and safety of airborne nasal delivery; settings: 12 ng intranasal; for Adverse effects reported: during the intervention and 24 hours after
Experimental: The physiologic and psychological effects of pregna-5,20-dien-3β-ol were investigated in men and women. Additionally, the local and general tolerability and safety of pregna-5,20-dien-3β-ol delivered airborne to the nasal passages were also evaluated.
After completion of physiologic recordings and the modified DABS-70 (#3), all surface electrodes were removed and the subject went through an exit interview lasting 5 minutes. At this time the investigator recorded again the arterial blood pressure and also inquired the subject about his or her state of feelings, and also any possible adverse effect appearing during the study session.

[3] = system: healthy volunteers (men and women); test: Behavioral effects by modified DABS-70 inventory after nasal exposure; settings: 12 ng nasal
[4] = MALE, 12 ng nasal, modified DABS-70 item
[5] = men (N = 38), 12 ng nasal over 20 min, modified DABS-70
[6] = men and women, regardless of gender, 12 ng nasal, p<0.0001
[7] = women (N = 38), 12 ng nasal over 20 min, modified DABS-70

`C=C[C@H]1CC[C@H]2[C@@H]3CC=C4C[C@@H](O)CC[C@]4(C)[C@H]3CC[C@]12C` [pregna-5,20-dien-3β-ol, Pregna-5,20-dien-3β-ol] was tested, and the “ENERGETIC item, ACTIVE MEAN” value ([1]; FEMALE, 12 ng nasal, modified DABS-70 item) was 2.07, the “LOVING item, ACTIVE MEAN” value [1, 4] was 2.42 and the “WARM item, ACTIVE MEAN” value [1, 4] was 2.25. For the same compound, the Arousal/Excitement cluster mean [1, 5] was 2.006, the Negativity cluster mean [1, 5] was 0.246 and the “Personal Well-Being cluster mean” value [1, 5] was 2.607. The “Social Warmth/Friendliness cluster mean” value [1, 5] was 2.147, the Sensuality cluster mean ([1]; men (N = 38), 12 ng nasal over 20 min) was 1.286 and the “Social Warmth and Friendliness cluster, overall response versus control” value ([1]; men and women, regardless of gender, 12 ng nasal, p<0.00001) was “active>control”. The “Arousal and Excitement cluster, overall response versus control” value [1, 6] was “active>control”, the “Sensuality cluster, overall response versus control” value [1, 6] was “active>control” and the “Negativity cluster, response versus control” value ([1]; men and women, 12 ng nasal) was “not associated with being exposed to active versus control treatment”. For the same compound, the Arousal/Excitement cluster mean [1, 7] was 1.857, the Negativity cluster mean [1, 7] was 0.238 and the “Social Warmth/Friendliness cluster mean” value [1, 7] was 1.92. The Sensuality cluster mean ([1]; women (N = 38), 12 ng nasal over 20 min) was 1.446, the “Arterial blood pressure, beginning of session vs exit interview” value [2] was “absence of significant arterial blood pressure difference” and the Tolerability ([2]; airborne, all volunteers of both gender groups) was “well tolerated”. The Adverse effects reported [2] was “no adverse effects reported”, the Adverse effects reported ([2]; listed as Pregna-5,20-dien-3β-ol) was “no reports of local or general adverse side effects” and the “Local nasal discomfort / clinical examination of the nasal passages” value ([2]; end of the recording session) was “did not reveal local lesions and/or inflammation”. The “Negativity cluster, response versus control” value ([3]; listed as muricin aglycone) was “no effect on negativity” and the “Social Warmth and Friendliness cluster, overall response versus control” value ([3]; regardless of gender, p<0.00001, listed as muricin aglycone) was “enhanced levels”.
